From PMC9127750, “Structure-based design of CDC42 effector interaction inhibitors for the treatment of cancer” (Cell reports, 2022)

Experiments:
Assay in all cases: cells
MOLM-13 = details: Homo sapiens, MOLM-13, read-out: IC50 ARN22089
Description: (§1) Cancer cell line viability assay was performed using a CellTiterGlo assay. Cells were cultured in their appropriate media and seeded in white multi-well plates. For the assays, cells were incubated with compound at 37°C overnight, and a CellTiterGlo assay was performed to quantify viable cells.

RPMI 8226 = details: Homo sapiens, RPMI-8226, read-out: IC50 ARN22089
Description: as §1

BT-20 = details: Homo sapiens, BT-20, read-out: IC50 ARN22089
Description: as §1

MDAMB435 = details: Homo sapiens, MDA-MB-435, read-out: IC50 ARN22089
Description: as §1

NCI-H2110 = details: NCI-H2110, read-out: IC50 ARN22089
Description: as §1

A549 = details: Homo sapiens, A549, read-out: IC50 ARN22089
Description: as §1

U-937 = details: Homo sapiens, U-937, read-out: IC50 ARN22089
Description: as §1

SK-N-FI = details: Homo sapiens, read-out: IC50 ARN22089
Description: as §1

Colo 205 = details: Homo sapiens, COLO 205, read-out: IC50 ARN22089
Description: as §1

PANC-1 = details: Homo sapiens, PANC-1, read-out: IC50 ARN22089
Description: as §1

NCI-H292 = details: Homo sapiens, NCI-H292, read-out: IC50 ARN22089
Description: as §1

SK-MEL-3 = details: Homo sapiens, SK-MEL3, read-out: IC50 ARN22089
Description: as §1

A498 = details: Homo sapiens, A498, read-out: IC50 ARN22089
Description: as §1

SK-OV3 = details: Homo sapiens, SK-OV-3, read-out: IC50 ARN22089
Description: as §1

NCI-N87 = details: Homo sapiens, NCI-N87, read-out: IC50 ARN22089
Description: as §1

A172 = details: Homo sapiens, A 172, read-out: IC50 ARN22089
Description: as §1

RL95-2 = details: Homo sapiens, RL95-2, read-out: IC50 ARN22089
Description: as §1

OCI-AML5 = details: Homo sapiens, OCI-AML-5, read-out: IC50 ARN22089
Description: as §1

HEC-1-B = details: Homo sapiens, read-out: IC50 ARN22089
Description: as §1

A2058 = details: Homo sapiens, A2058, read-out: IC50 ARN22089
Description: as §1

AsPC-1 = details: Homo sapiens, ASPC1, read-out: IC50 ARN22089
Description: as §1

NCI-H1563 = details: Homo sapiens, NCI-H1563, read-out: IC50 ARN22089
Description: as §1

RKO = details: Homo sapiens, read-out: IC50 ARN22089
Description: as §1

MDAMB231 = details: Homo sapiens, MDA-MB-231, read-out: IC50 ARN22089
Description: as §1

Ishikawa = details: Homo sapiens, read-out: IC50 ARN22089
Description: as §1

T84 = details: Homo sapiens, T84, read-out: IC50 ARN22089
Description: as §1

COR-L279 = details: Homo sapiens, COR-L279, read-out: IC50 ARN22089
Description: as §1

HT-1080 = details: Homo sapiens, HT-1080, read-out: IC50 ARN22089
Description: as §1

HEC-1-A = details: Homo sapiens, read-out: IC50 ARN22089
Description: as §1

NCI-H1437 = details: Homo sapiens, NCI-H1437, read-out: IC50 ARN22089
Description: as §1

SK-LU-1 = details: Homo sapiens, SK-LU-1, read-out: IC50 ARN22089
Description: as §1

NCI-H2286 = details: Homo sapiens, NCI-H2286, read-out: IC50 ARN22089
Description: as §1

Hutu 80 = details: Homo sapiens, HuTu80, read-out: IC50 ARN22089
Description: as §1

SNU840 = details: SNU-840, read-out: IC50 ARN22089
Description: as §1

OVK18 = details: OVK18, read-out: IC50 ARN22089
Description: as §1

HCC38 = details: Homo sapiens, HCC38, read-out: IC50 ARN22089
Description: as §1

EFM-192A = details: read-out: IC50 ARN22089
Description: as §1

J82 = details: Homo sapiens, J82, read-out: IC50 ARN22089
Description: as §1

NCI-H1573 = details: Homo sapiens, NCI-H1573, read-out: IC50 ARN22089
Description: as §1

MOLT-4 = details: Homo sapiens, MOLT-4, read-out: IC50 ARN22089
Description: as §1

LN229 = details: Homo sapiens, LN-229, read-out: IC50 ARN22089
Description: as §1

Work on CN(C)c1cccc(Nc2cc(-c3ccccc3)nc(C3CCNCC3)n2)c1 [ARN22089, N1,N1-dimethyl-N3-(6-phenyl-2-(piperidin-4-yl)pyrimidin-4-yl)benzene-1,3-diamine] yielded an IC50 (MOLM-13) of 13 µM, an IC50 (RPMI 8226) of 5.8 µM and an IC50 (BT-20) of 29 µM. The IC50 (MDAMB435) was 10 µM, the IC50 (NCI-H2110) was 21 µM and the IC50 (A549) was 11 µM. The IC50 (U-937) was 3.5 µM, the IC50 (SK-N-FI) was 11 µM and the IC50 (Colo 205) was 7 µM. The IC50 (PANC-1) was 11 µM, the IC50 (NCI-H292) was 12 µM and the IC50 (SK-MEL-3) was 3.3 µM. It also gave an IC50 (A498) of 10 µM, an IC50 (SK-OV3) of 7.6 µM and an IC50 (NCI-N87) of 5.7 µM. It also gave an IC50 (A172) of 5.8 µM, an IC50 (RL95-2) of 5.7 µM and an IC50 (OCI-AML5) of 15 µM. The IC50 (HEC-1-B) was 18 µM, the IC50 (A2058) was 3.7 µM and the IC50 (AsPC-1) was 9.9 µM. It also gave an IC50 (NCI-H1563) of 16 µM, an IC50 (RKO) of 3.9 µM and an IC50 (MDAMB231) of 10 µM. It also gave an IC50 (Ishikawa) of 8.5 µM, an IC50 (T84) of 5.3 µM and an IC50 (COR-L279) of 12 µM. The IC50 (HT-1080) was 11 µM, the IC50 (HEC-1-A) was 9.5 µM and the IC50 (NCI-H1437) was 16 µM. For the same molecule, the IC50 (SK-LU-1) was 7.8 µM, the IC50 (NCI-H2286) was 14 µM and the IC50 (Hutu 80) was 12 µM. For the same molecule, the IC50 (SNU840) was 6.5 µM, the IC50 (OVK18) was 7.5 µM and the IC50 (HCC38) was 10 µM. The IC50 (EFM-192A) was 14 µM, the IC50 (J82) was 5.9 µM and the IC50 (NCI-H1573) was 24 µM. For the same molecule, the IC50 (MOLT-4) was 11 µM and the IC50 (LN229) was 7.8 µM.
